For one assay, the target named is T1, IRAK4 (Homo sapiens, UniProt Q9NWZ3).
T1 construct: 1 nM IRAK4 (160-460); purchased SignalChem M24016
T1 sequence (Q9NWZ3 160-460): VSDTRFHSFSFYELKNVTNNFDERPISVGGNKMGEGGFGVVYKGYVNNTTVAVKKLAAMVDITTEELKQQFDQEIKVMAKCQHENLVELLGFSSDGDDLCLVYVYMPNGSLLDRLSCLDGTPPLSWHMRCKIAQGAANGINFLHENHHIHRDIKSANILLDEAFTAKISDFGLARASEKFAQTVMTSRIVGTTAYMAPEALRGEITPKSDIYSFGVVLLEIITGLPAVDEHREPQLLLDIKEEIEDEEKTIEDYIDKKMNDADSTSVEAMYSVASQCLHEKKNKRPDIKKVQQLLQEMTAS
Description: IRAK4 Inhibition Assay (kinase reaction, Caliper capillary electrophoresis). Type of assay: biochemical. Conditions: 500 μM ATP, 11 concentrations. The protocol: The reactions were incubated out for three hours and quenched with 1 mM EDTA solution. The reaction incubation time and enzyme concentration were optimized to obtain a maximum peptide substrate conversion of 20-30%. The reaction mixtures were analyzed by capillary electrophoresis on a Caliper LabChip EZ Reader to resolve phosphorylated and unphosphorylated peptide species and determine peptide substrate conversion. […] The compounds were dissolved in DMSO and evaluated at 11 concentrations to determine IC50 values.

The target in another assay is T2, HPK1 (Homo sapiens, UniProt Q92918).
T2 construct: purchased SignalChem M23-11G
T2 sequence (Q92918 1-346 limits assumed): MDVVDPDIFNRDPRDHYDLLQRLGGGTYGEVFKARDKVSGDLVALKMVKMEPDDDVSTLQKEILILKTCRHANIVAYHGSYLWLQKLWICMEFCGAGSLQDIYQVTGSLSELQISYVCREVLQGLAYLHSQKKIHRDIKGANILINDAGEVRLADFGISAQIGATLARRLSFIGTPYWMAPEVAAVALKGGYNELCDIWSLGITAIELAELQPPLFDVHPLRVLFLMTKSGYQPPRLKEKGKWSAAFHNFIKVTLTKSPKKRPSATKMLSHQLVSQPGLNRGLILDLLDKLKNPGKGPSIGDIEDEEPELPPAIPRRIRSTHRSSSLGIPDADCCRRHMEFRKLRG
Description: HPK1 Inhibition Assay (kinase reaction, Caliper capillary electrophoresis). Format: biochemical. Conditions: for IC50: 0.625 nM HPK1, 22 μM ATP, 11 concentrations, read-out: HPK1 IC50; for IRAK4/HPK1 Ratio: ratio of the IRAK4 IC50 value to the HPK1 IC50 value. On the procedure:
The reactions were incubated out for three hours and quenched with 1 mM EDTA solution. The reaction incubation time and enzyme concentration were optimized to obtain a maximum peptide substrate conversion of 20-30%. The reaction mixtures were analyzed by capillary electrophoresis on a Caliper LabChip EZ Reader to resolve phosphorylated and unphosphorylated peptide species and determine peptide substrate conversion. […] The compounds were dissolved in DMSO and evaluated at 11 concentrations to determine the IC50 values.

Data on 17 molecules can be found in US11166959B2, “Isofuranone compounds useful as HPK1 inhibitors” (BRISTOL-MYERS SQUIBB COMPANY, priority 2017, dated 2021).

Usually IC50 stands for the concentration needed to halve the response being measured.

As for `O=C1OCc2cc(Nc3ncc(-c4ncccn4)c(N[C@H](CO)c4ccccc4)n3)ccc21` [Example 1, 5-[(4′-{[(1S)-2-hydroxy-1-phenylethyl]amino}-[2,5′-bipyrimidine]-2′-yl)amino]-1,3-dihydro-2-benzofuran-1-one], the IC50 on IRAK4 is 250 to 1000 nM. On HPK1, the IC50 was less than 50 nM and the “IRAK4/HPK1 Ratio” value is “B (B=10 to 50)”.

`CC1(C)OC(=O)c2ccc(Nc3ncc(C(=O)NCC4CC(F)(F)C4)c(N[C@H](CO)c4ccccc4)n3)cc21` [Example 4, N-[(3,3-difluorocyclobutyl)methyl]-2-[(3,3-dimethyl-1-oxo-1,3-dihydro-2-benzofuran-5-yl)amino]-4-{[(1S)-2-hydroxy-1-phenylethyl]amino}pyrimidine-5-carboxamide]: the concentration for half-maximal inhibition (IC50) on IRAK4 is 250 to 1000 nM. Besides, at HPK1, the IC50 was less than 50 nM and the “IRAK4/HPK1 Ratio” value is “B (B=10 to 50)”.

As for `CN(C)CCCNC(=O)c1cnc(Nc2ccc3c(c2)C(C)(C)OC3=O)nc1N[C@H](CO)c1ccccc1` [Example 5, 2-[(3,3-dimethyl-1-oxo-1,3-dihydro-2-benzofuran-5-yl)amino]-N-[3-(dimethylamino)propyl]-4-{[(1S)-2-hydroxy-1-phenylethyl]amino}pyrimidine-5-carboxamide], the IC50 on IRAK4 is 250 to 1000 nM; at HPK1, less than 50 nM. The “IRAK4/HPK1 Ratio” value on HPK1 is on record as “B (B=10 to 50)”.

In the case of `CC1(C)OC(=O)c2ccc(Nc3ncc(C(=O)NCc4ccccn4)c(N[C@H](CO)c4ccccc4)n3)cc21` [Example 6, 2-[(3,3-dimethyl-1-oxo-1,3-dihydro-2-benzofuran-5-yl)amino]-4-{[(1S)-2-hydroxy-1-phenylethyl]amino}-N-[(pyridin-2-yl)methyl]pyrimidine-5-carboxamide], the IC50 against IRAK4 lay within 50 to 250 nM. At HPK1, the concentration for half-maximal inhibition (IC50) is less than 50 nM and the “IRAK4/HPK1 Ratio” value is “B (B=10 to 50)”.

Consider `CC1(C)OC(=O)c2ccc(Nc3ncc(C(=O)NCCCN4CCOCC4)c(N[C@H](CO)c4ccccc4)n3)cc21` [Example 7, 2-[(3,3-dimethyl-1-oxo-1,3-dihydro-2-benzofuran-5-yl)amino]-4-{[(1S)-2-hydroxy-1-phenylethyl]amino}-N-[3-(morpholin-4-yl)propyl]pyrimidine-5-carboxamide], for which the IC50 against IRAK4 was 250 to 1000 nM. For the same molecule, at HPK1, the IC50 was less than 50 nM and the “IRAK4/HPK1 Ratio” value is on record as “B (B=10 to 50)”.

Turning to `COCCNC(=O)c1cnc(Nc2ccc3c(c2)C(C)(C)OC3=O)nc1N[C@H](CO)c1ccccc1` [Example 8, 2-[(3,3-dimethyl-1-oxo-1,3-dihydro-2-benzofuran-5-yl)amino]-4-{[(1S)-2-hydroxy-1-phenylethyl]amino}-N-(2-methoxyethyl)pyrimidine-5-carboxamide], the IC50 is 50 to 250 nM at IRAK4 and less than 50 nM at HPK1. Besides, the “IRAK4/HPK1 Ratio” value on HPK1 is “B (B=10 to 50)”.

Molecule `CN(C)CCNC(=O)c1cnc(Nc2ccc3c(c2)C(C)(C)OC3=O)nc1N[C@H](CO)c1ccccc1` [Example 9, 2-[(3,3-dimethyl-1-oxo-1,3-dihydro-2-benzofuran-5-yl)amino]-N-[2-(dimethylamino)ethyl]-4-{[(1S)-2-hydroxy-1-phenylethyl]amino}pyrimidine-5-carboxamide] showed an IC50 against IRAK4 of 250 to 1000 nM. Moreover, at HPK1, the IC50 is less than 50 nM and the “IRAK4/HPK1 Ratio” value is on record as “B (B=10 to 50)”.

`CC1(C)OC(=O)c2ccc(Nc3ncc(C(=O)NCc4ccccc4)c(N[C@H](CO)c4ccccc4)n3)cc21` [Example 10, N-benzyl-2-[(3,3-dimethyl-1-oxo-1,3-dihydro-2-benzofuran-5-yl)amino]-4-{[(1S)-2-hydroxy-1-phenylethyl]amino}pyrimidine-5-carboxamide]: the IC50 on IRAK4 is 250 to 1000 nM; at HPK1, less than 50 nM. The “IRAK4/HPK1 Ratio” value at HPK1 is reported as “C (C=>50)”.

In the case of `CC(C)(C)NC(=O)c1cnc(Nc2ccc3c(c2)C(C)(C)OC3=O)nc1N[C@H](CO)c1ccccc1` [Example 11, N-tert-butyl-2-[(3,3-dimethyl-1-oxo-1,3-dihydro-2-benzofuran-5-yl)amino]-4-{[(1S)-2-hydroxy-1-phenylethyl]amino}pyrimidine-5-carboxamide], on IRAK4, the IC50 lay within 250 to 1000 nM. At HPK1, the IC50 is less than 50 nM and the “IRAK4/HPK1 Ratio” value is “B (B=10 to 50)”.

As for `CC(C)CNC(=O)c1cnc(Nc2ccc3c(c2)C(C)(C)OC3=O)nc1N[C@H](CO)c1ccccc1` [Example 12, 2-[(3,3-dimethyl-1-oxo-1,3-dihydro-2-benzofuran-5-yl)amino]-4-{[(1S)-2-hydroxy-1-phenylethyl]amino}-N-(2-methylpropyl)pyrimidine-5-carboxamide], the results for the IC50 on IRAK4 and at HPK1 were 250 to 1000 nM and less than 50 nM, respectively. Also, the “IRAK4/HPK1 Ratio” value on HPK1 is given as “B (B=10 to 50)”.

In turn, `CC(NC(=O)c1cnc(Nc2ccc3c(c2)C(C)(C)OC3=O)nc1N[C@H](CO)c1ccccc1)c1ccccc1` (stereo partly drawn) [Example 15, 2-[(3,3-dimethyl-1-oxo-1,3-dihydro-2-benzofuran-5-yl)amino]-4-{[(1S)-2-hydroxy-1-phenylethyl]amino}-N-(1-phenylethyl)pyrimidine-5-carboxamide] came in with an IC50 on IRAK4 of 250 to 1000 nM. Besides, at HPK1, the IC50 was 50 to 250 nM and the “IRAK4/HPK1 Ratio” value was “B (B=10 to 50)”.

On IRAK4, `Cc1ccccc1CNC(=O)c1cnc(Nc2ccc3c(c2)C(C)(C)OC3=O)nc1N[C@H](CO)c1ccccc1` [Example 16, 2-[(3,3-dimethyl-1-oxo-1,3-dihydro-2-benzofuran-5-yl)amino]-4-{[(1S)-2-hydroxy-1-phenylethyl]amino}-N-[(2-methylphenyl)methyl]pyrimidine-5-carboxamide] registered an IC50 of 250 to 1000 nM. Further, at HPK1, the IC50 was 50 to 250 nM and the “IRAK4/HPK1 Ratio” value is “B (B=10 to 50)”.

With `CC1(C)OC(=O)c2ccc(Nc3ncc(C(=O)N[C@H]4C[C@@H]4c4ccccc4)c(N[C@H](CO)c4ccccc4)n3)cc21` [Example 17, 2-[(3,3-dimethyl-1-oxo-1,3-dihydro-2-benzofuran-5-yl)amino]-4-{[(1S)-2-hydroxy-1-phenylethyl]amino}-N-[(1S,2R)-2-phenylcyclopropyl]pyrimidine-5-carboxamide], the IC50 at IRAK4 is 250 to 1000 nM. In addition, at HPK1, the IC50 was in the range of 50 to 250 nM and the “IRAK4/HPK1 Ratio” value was “B (B=10 to 50)”.

For the molecule `CC1(C)OC(=O)c2ccc(Nc3ncc(C(=O)NCCCn4ccnc4)c(N[C@H](CO)c4ccccc4)n3)cc21` [Example 19, 2-[(3,3-dimethyl-1-oxo-1,3-dihydro-2-benzofuran-5-yl)amino]-4-{[(1S)-2-hydroxy-1-phenylethyl]amino}-N-[3-(1H-imidazol-1-yl)propyl]pyrimidine-5-carboxamide], the figures for the IC50 against IRAK4 and on HPK1 were 250 to 1000 nM and less than 50 nM, respectively. The “IRAK4/HPK1 Ratio” value at HPK1 was “B (B=10 to 50)”.

In the case of `Cc1cnc(CNC(=O)c2cnc(Nc3ccc4c(c3)C(C)(C)OC4=O)nc2N[C@H](CO)c2ccccc2)cn1` [Example 20, 2-[(3,3-dimethyl-1-oxo-1,3-dihydro-2-benzofuran-5-yl)amino]-4-{[(1S)-2-hydroxy-1-phenylethyl]amino}-N-[(5-methylpyrazin-2-yl)methyl]pyrimidine-5-carboxamide], the IC50 against IRAK4 was 250 to 1000 nM; on HPK1, less than 50 nM. Also, the “IRAK4/HPK1 Ratio” value on HPK1 is “B (B=10 to 50)”.

On to `C#CCNC(=O)c1cnc(Nc2ccc3c(c2)C(C)(C)OC3=O)nc1N[C@H](CO)c1ccccc1` [Example 21, 2-[(3,3-dimethyl-1-oxo-1,3-dihydro-2-benzofuran-5-yl)amino]-4-{[(1S)-2-hydroxy-1-phenylethyl]amino}-N-(prop-2-yn-1-yl)pyrimidine-5-carboxamide], for which, at IRAK4, the IC50 fell in the range of 250 to 1000 nM. Besides, on HPK1, the IC50 is less than 50 nM and the “IRAK4/HPK1 Ratio” value is “B (B=10 to 50)”.

On IRAK4, `CC1(C)OC(=O)c2ccc(Nc3ncc(C(=O)NC4CCN(Cc5ccccc5)C4)c(N[C@H](CO)c4ccccc4)n3)cc21` (stereo partly drawn) [Example 22, N-(1-benzylpyrrolidin-3-yl)-2-[(3,3-dimethyl-1-oxo-1,3-dihydro-2-benzofuran-5-yl)amino]-4-{[(1S)-2-hydroxy-1-phenylethyl]amino}pyrimidine-5-carboxamide] returned an IC50 of 250 to 1000 nM. Also, on HPK1, the IC50 is less than 50 nM and the “IRAK4/HPK1 Ratio” value is “C (C=>50)”.
